Holding throughout (assay): inhibition of tumour cell growth, NCI panel, 48 h
Test [1] relates to IGROV1 ovarian.
In test [2] the test system is SF-268 CNS.
Test [3] deals with LOX IMVI melanoma.
Test [4] deals with HOP-92 NSCLC.
Test [5] deals with HOP-62 NSCLC.
For test [6], the system named is M14 melanoma.
In test [7] the test system is SF-295 CNS.
Test [8] relates to MALME-3M melanoma.
Test [9] concerns OVCAR-4 ovarian.
Test [10] deals with MCF7 breast.

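Five compound concentrations were applied to cells in 96-well plates for 48 hours; endpoints were derived by simple linear interpolation of the resulting dose-response curve. GI50: concentration for 50% inhibition of growth. TGI is the concentration that stops growth completely.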

From PubChem BioAssay (NCI) come the findings set out here.

Consider `COc1ccccc1NS(=O)(=O)c1cc(C(C)(C)C)ccc1OCCOc1ccc(C(C)(C)C)cc1S(=O)(=O)Nc1ccccc1OC`, for which the TGI in [1], in test [2], in [3], in test [4], in test [5] and in test [6] was above 100 µM in each case. For the same molecule, the TGI in test [7], in test [8] and in test [9] was above 100 µM in each case.
Turning to `CCN1N=CSC12C(=O)N(c1ccccc1)C(=O)N2c1ccccc1` (stereo not drawn), the TGI in test [1], in test [2], in test [3], in test [4], in test [5] and in test [6] was above 100 µM throughout. In addition, the TGI in test [7], in test [8] and in test [9] was above 100 µM throughout.
Consider `CCOC(=O)C12CN(C34CC5CC(CC(C5)C3)C4)CC(C(=O)OCC)(C1=O)C(c1ccccc1)OC2c1ccccc1` (stereo not drawn), for which the TGI was above 100 µM in test [1]; above 100 µM in test [2]; above 100 µM in [3]; 9.73 µM in test [4]; above 100 µM in test [5]; above 100 µM in test [6]. For the same molecule, the TGI in [7], in test [8] and in [9] was above 100 µM in each case.
As to `Cn1cccc1C1CC(=O)N(CCC[Se]C#N)C1=O` (stereo not drawn), the GI50 in test [1] was 1.86 µM; in [2], 1.92 µM; in test [10], 2.85 µM; in [3] it was 1.88 µM; in test [5], 1.88 µM; in test [6], 1.56 µM. For the same molecule, the GI50 in test [7] is 1.81 µM; in test [8], 1.89 µM; in test [9], 2.35 µM. In addition, the TGI in test [1] amounted to 4.68 µM; in [2] it was 3.92 µM; in [10], 14.6 µM; in test [3], 4.28 µM; in test [5] it was 3.77 µM; in test [6], 3.89 µM. Also, the TGI in [7] came to 3.29 µM; in test [8], 4.12 µM; in test [9] it was 14 µM.
Consider `CC1=C(C(=O)Nc2cc(F)c(F)cc2F)C(c2cccc([N+](=O)[O-])c2)C(C(=O)Nc2ccccc2C(F)(F)F)=C(C)N1` (stereo not drawn), for which the TGI in test [1] was above 100 µM; in [2] it was 54.6 µM; in [3] it was 39.4 µM; in [4], 32.3 µM; in test [5], 54.5 µM; in [6] it was 55.5 µM. Besides, the TGI in [7] is 48.8 µM; in [8] it was 77.8 µM; in [9] it was 66.1 µM.
Take `NC(=NCc1ccccc1)N/N=C\c1ccnc2ccccc12`: the TGI in [2] turned out to be 28.6 µM; in test [10], 25.5 µM; in test [3] it was 28.5 µM; in test [4] it was 7.86 µM; in [5], 32.1 µM; in test [6] it was 17.5 µM. The values for the TGI in [7], in test [8] and in test [9] were 32.2 µM, 27 µM and 33 µM, respectively.
As to `Nc1ccc(C(=O)O)c2[nH]c3ccccc3c(=O)c12`, the TGI in [1], in test [2], in test [3], in test [4], in [5] and in [6] was above 100 µM each time. Moreover, the TGI in [7], in [8] and in test [9] was above 100 µM each time.
Take `N/C(=N\N=C=C1C(=O)Nc2ccc(F)cc21)NO`: the TGI in [1], in test [2], in test [3], in test [4], in [5] and in [6] was above 100 µM throughout. For the same molecule, the TGI in test [7], in [8] and in [9] was above 100 µM each time.
With `COc1ccc(C=O)c(N(C)C(=O)C(C)(C)C)c1`, the TGI in [1], in test [2], in test [3], in [4], in test [5] and in test [6] was above 100 µM each time. The TGI in test [7], in [8] and in test [9] was above 100 µM in each case.
`COc1ccc2c(c1)C(=O)/C(=C/c1ccc(OCC(=O)c3ccc(Cl)cc3)cc1)O2`: the GI50 in test [1] is 11.1 µM; in test [2], 18.4 µM; in test [10] it was 28.3 µM; in test [3], 5.44 µM; in test [4], 15.7 µM; in test [5], 43.8 µM. The GI50 in [7] is 30.9 µM; in test [8], 20 µM; in [9] it was 13.3 µM. Also, the TGI was 35.3 µM in test [1]; 48.6 µM in [2]; above 100 µM in [10]; 19.8 µM in [3]; 37.1 µM in test [4]; above 100 µM in [5]. Also, the TGI in test [7] was above 100 µM; in test [8], 42.3 µM; in test [9] it was 36.7 µM.
Regarding `Cc1ccc(NC(=O)CCC(=O)C2CC(=O)CCC2=O)cc1C` (stereo not drawn), the TGI in [1], in test [2], in [3], in test [4], in [5] and in test [6] was above 100 µM each time. The TGI in [7], in test [8] and in [9] was above 100 µM throughout.
Take `Cc1nc(N=C(N)N)nc2ccc3ccccc3c12`: the GI50 in test [1] was 1.53 µM; in test [2], 0.505 µM; in test [10], 0.441 µM; in test [3], 1.57 µM; in test [5], 1.25 µM; in [6], 1.59 µM. Also, the GI50 in test [7] is 1.03 µM; in test [9], 1.44 µM. For the same molecule, the TGI in test [1] amounted to 7.87 µM; in [2], 2.55 µM; in test [10], 2.93 µM; in test [3], 3.18 µM; in test [5], 3.6 µM; in test [6], 3.43 µM. Also, the values for the TGI in [7] and in test [9] were 4.43 µM and 5.1 µM, respectively.
